Measurements as given in US11498923B2 (Merck Sharp & Dohme Corp., priority 2017, dated 2022).

These compounds were tested against T1, human A2a receptor (Homo sapiens, UniProt P29274) (assay: A2a receptor competition binding assay (Scintillation Proximity)). Details: membranes from HEK293 cells expressing human A2a receptor; 0.5 nM tritiated ligand; Cheng-Prusoff; read-out: A2a Ki.
T1 construct: purchased Perkin-Elmer RBHA2AM400UA; host or cells: HEK293 cells, used as a membrane preparation
Procedure, shortened: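 Ki values were obtained with the Cheng-Prusoff equation from competition curves against 0.5 nM tritiated antagonist, scintillation proximity counting after 1 h room-temperature incubation. Receptor came from HEK293 membranes pretreated with adenosine deaminase; compound final range 3000–0.15 nM, buffer Ca/Mg-free PBS with 10 mM MgCl2.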

T1 sequence (P29274 whole entry): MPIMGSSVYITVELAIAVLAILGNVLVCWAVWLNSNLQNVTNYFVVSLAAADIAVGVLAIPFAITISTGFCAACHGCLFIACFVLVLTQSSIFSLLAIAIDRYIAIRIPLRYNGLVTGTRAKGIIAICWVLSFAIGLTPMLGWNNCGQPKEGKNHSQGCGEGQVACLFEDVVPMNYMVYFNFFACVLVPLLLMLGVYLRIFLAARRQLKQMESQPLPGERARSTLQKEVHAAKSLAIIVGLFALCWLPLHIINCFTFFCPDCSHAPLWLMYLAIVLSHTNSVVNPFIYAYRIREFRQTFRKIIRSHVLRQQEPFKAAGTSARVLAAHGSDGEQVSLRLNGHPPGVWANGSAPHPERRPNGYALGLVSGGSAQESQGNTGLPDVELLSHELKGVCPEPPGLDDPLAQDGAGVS

| Structure (SMILES) | Ki [nM] |
| --- | --- |
| COc1cccc2c1nc(N)n1cc(C(=O)N3CCC[C@@H]3C)nc21 [Ex-216, (S)-(5-amino-7-methoxyimidazo[1,2-c]quinazolin-2-yl)(2-methylpyrrolidin-1-yl)methanone] | 10 |
| COc1cccc2c1nc(N)n1cc(C(=O)N3CC[C@H](OC)C3)nc21 [Ex-212, (S)-(5-amino-7-methoxyimidazo[1,2-c]quinazolin-2-yl)(3-methoxypyrrolidin-1-yl)methanone] | 5.5 |
| COc1cccc2c1nc(N)n1cc(Cc3ccccc3N3CCCC3)nc21 [Ex-29, 7-methoxy-2-(2-(pyrrolidin-1-yl)benzyl)imidazo[1,2-c]quinazolin-5-amine] | 1.6 |
| Nc1nc2ccccc2c2nc(C(=O)NCc3ccc(F)cc3F)cn12 [Ex-158, 5-amino-N-(2,4-difluorobenzyl)imidazo[1,2-c]quinazoline-2-carboxamide] | 33.9 |
| Nc1nc2c(F)cccc2c2nc(Cc3cccc(-c4ccc5nonc5c4)c3)cn12 [Ex-77, 2-(3-(benzo[c][1,2,5]oxadiazol-5-yl)benzyl)-7-fluoroimidazo[1,2-c]quinazolin-5-amine] | 12 |
| COc1cccc2c1nc(N)n1cc(Cc3cccnc3N3CCN(C)CC3)nc21 [Ex-51, 7-methoxy-2-((2-(4-methylpiperazin-1-yl)pyridin-3-yl)methyl)imidazo[1,2-c]quinazolin-5-amine] | 23.9 |
| COc1cccc2c1nc(N)n1cc(Cc3ccc(F)cc3)nc21 [Ex-21, 2-(4-fluorobenzyl)-7-methoxyimidazo[1,2-c]quinazolin-5-amine] | 0.8 |
| COc1ccc(-c2cn(Cc3cn4c(N)nc5c(OC)cccc5c4n3)nn2)cc1 [Ex-93, 7-methoxy-2-((4-(4-methoxyphenyl)-1H-1,2,3-triazol-1-yl)methyl)imidazo[1,2-c]quinazolin-5-amine] | 2.5 |
| Nc1nc2c(F)cccc2c2nc(Cn3cc(-c4ccc(-c5cccnc5)cc4)nn3)cn12 [Ex-98, 7-fluoro-2-((4-(4-(pyridin-3-yl)phenyl)-1H-1,2,3-triazol-1-yl)methyl)imidazo[1,2-c)quinazolin-5-amine] | 6.7 |
| Cn1cc(-c2ccc(F)c3nc(N)n4cc(Cc5ccccc5)nc4c23)ccc1=O [Ex-61, 5-(5-amino-2-benzyl-7-fluoroimidazo[1,2-c]quinazolin-10-yl)-1-methylpyridin-2(1H)-one] | 27 |
| COc1cccc2c1nc(N)n1cc(C(=O)N3CCC(F)(F)C3)nc21 [Ex-221, (5-amino-7-methoxyimidazo[1,2-c]quinazolin-2-yl)(3,3-difluoropyrrolidin-1-yl)methanone] | 6.6 |
| COc1cccc2c1nc(N)n1cc(CCc3ccccc3)nc21 [Ex-102, 7-methoxy-2-phenethylimidazo[1,2-c]quinazolin-5-amine] | 3.8 |
| COc1cccc2c1nc(N)n1cc(Cc3cccc(-c4ccccc4)c3)nc21 [Ex-24, 2-([1,1′-biphenyl]-3-ylmethyl)-7-methoxyimidazo[1,2-c]quinazolin-5-amine] | 10 |
| COc1cccc2c1nc(N)n1cc(Cc3ccc(F)cc3F)nc21 [Ex-18, 2-(2,4-difluorobenzyl)-7-methoxyimidazo[1,2-c]quinazolin-5-amine] | 1 |
| CCCN1CCc2c(Cc3cn4c(N)nc5c(F)cccc5c4n3)cccc2C1 [Ex-56, 7-fluoro-2-((2-propyl-1,2,3,4-tetrahydroisoquinolin-5-yl)melhyl)imidazo-[1,2-c]quinazolin-5-amine] | 16 |
| COc1cccc2c1nc(N)n1cc(C(=O)N3CCCC(OC)C3)nc21 (centres unmarked) [Ex-169, (5-amino-7-methoxyimidazo[1,2-c]quinazolin-2-yl)(3-methoxypiperidin-1-yl)methanone] | 34 |
| COc1cccc2c1nc(N)n1cc(C(=O)N3CCC(=O)C(C(C)C)C3)nc21 (centres unmarked) [Ex-199, 1-(5-amino-7-methoxyimidazo[1,2-c]quinazoline-2-carbonyl)-3-isopropylpiperidin-4-one] | 260 |
| COc1cccc2c1nc(N)n1cc(Cc3cccnc3F)nc21 [Ex-42, 2-((2-fluoropyridin-3-yl)methyl)-7-methoxyimidazo[1,2-c]quinazolin-5-amine] | 2.8 |
| Cc1noc(C)c1-c1cccc2c1nc(N)n1cc(CNCc3ccccc3)nc21 [Ex-153, 2-((benzylamino)-methyl)-7-(3,5-dimethyl-isoxazol-4-yl)-imidazo[1,2-c]-quinazolin-5-amine] | > 2200 |
| COc1cccc2c1nc(N)n1cc(Cc3ccnc(N4CCOCC4)c3)nc21 [Ex-40, 7-methoxy-2-((2-morpholinopyridin-4-yl)methyl)imidazo[1,2-c]quinazolin-5-amine] | 10 |
| Nc1nc2c(F)cccc2c2nc(Cc3cccc4cccnc34)cn12 [Ex-32, 7-fluoro-2-(quinolin-8-ylmethyl)imidazo[1,2-c]quinazolin-5-amine] | 2 |
| COc1cccc2c1nc(N)n1cc(Cc3cccc(F)c3)nc21 [Ex-22, 2-(3-fluorobenzyl)-7-methoxyimidazo[1,2-c]quinazolin-5-amine] | 1.9 |
| COc1cccc2c1nc(N)n1cc(C(=O)N3CCCC(C)CC3)nc21 (centres unmarked) [Ex-176, (5-amino-7-methoxyimidazo[1,2-c]quinazolin-2-yl)(4-methylazepan-1-yl)methanone] | 10 |
| CCn1cc(-c2cccc3c2nc(N)n2cc(Cc4ccccc4)nc32)cn1 [Ex-150, 2-benzyl-7-(1-ethyl-1H-pyrazol-4-yl)imidazo[1,2-c]quinazolin-5-amine] | 760 |
| COc1cccc2c1nc(N)n1cc(Cc3cccc4cccnc34)nc21 [Ex-16, 7-methoxy-2-(quinolin-8-ylmethyl)imidazo[1,2-c]quinazolin-5-amine] | 0.3 |
| Nc1nc2c(F)cccc2c2nc(CN3CCc4cc(CC(=O)Nc5ccccn5)ccc4C3)cn12 [Ex-129, 2-(2-((5-amino-7-fluoroimidazo[1,2-c]quinazolin-2-yl)methyl)-1,2,3,4-tetrahydroisoquinolin-6-yl)-N-(pyridin-2-yl)acetamide] | 51 |
| COc1cccc2c1nc(N)n1cc(Cc3cccnc3N3CCC(c4ccccc4)CC3)nc21 [Ex-62, 7-methoxy-2-((2-(4-phenylpiperidin-1-yl)pyridin-3-yl)methyl)imidazo[1,2-c]quinazolin-5-amine] | 2.2 |

Other lines, results leading:

| Ki [nM] | Structure (SMILES) |
| --- | --- |
| 5.1 | COCCOc1ccc(N2CCN(c3cccc(CNC(=O)c4cn5c(N)nc6c(F)cccc6c5n4)c3)CC2)cc1 [Ex-254, 5-amino-7-fluoro-N-(3-(4-(4-(2-methoxyethoxy)phenyl)piperazin-1-yl)benzyl)imidazo[1,2-c]quinazoline-2-carboxamide] |
| 82 | Nc1nc2c(F)cccc2c2nc(CC3CCN(C(=O)c4ccccc4)CC3)cn12 [Ex-315, (4-((5-amino-7-fluoro-imidazo[1,2-c]quina-zolin-2-yl)methyl)-piperidin-1-yl)-(phenyl)methanone] |
| 53 | CC(C)(C)OC(=O)N1CCC2(CCN(C(=O)c3cn4c(N)nc5c(F)cccc5c4n3)CC2)C1 [Ex-262, tert-butyl 8-(5-amino-7-fluoroimidazo[1,2-c]quinazoline-2-carbonyl)-2,8-diazaspiro[4.5]decane-2-carboxylate] |
| 40 | Nc1nc2c(F)cccc2c2nc(C(=O)N3CCN4CCCC[C@H]4C3)cn12 [Ex-285, (S)-(5-amino-7-fluoroimidazo[1,2-c]quinazolin-2-yl)(octahydro-2H-pyrido[1,2-a]pyrazin-2-yl)methanone] |
| 18 | Nc1nc2c(F)cccc2c2nc(C(=O)NCc3ccccc3CN3CCN(c4ccc(F)cc4F)CC3)cn12 [Ex-249, 5-amino-N-(2-((4-(2,4-difluorophenyl)piperazin-1-yl)methyl)benzyl)-7-fluoroimidazo[1,2-c]quinazoline-2-carboxamide] |
| 21 | Nc1nc2c(F)cccc2c2nc(C(=O)NCc3ccccc3CN3CCN(c4ccccn4)CC3)cn12 [Ex-246, 5-amino-7-fluoro-N-(2-((4-(pyridin-2-yl)piperazin-1-yl)methyl)benzyl)imidazo[1,2-c]quinazoline-2-carboxamide] |
| 45 | Nc1nc2c(F)cccc2c2nc(CC3CCN(Cc4cccs4)CC3)cn12 [Ex-306, 7-fluoro-2-((1-(thio-phen-2-ylmethyl)-piperidin-4-yl)methyl)-imidazo[1,2-c]quina-zolin-5-amine] |
| 9 | Nc1nc2c(F)cccc2c2nc(C(=O)NC3CCNc4ccccc43)cn12 (centres unmarked) [Ex-248, 5-amino-7-fluoro-N-(1,2,3,4-tetrahydroquinolin-4-yl)imidazo[1,2-c]quinazoline-2-carboxamide] |
| 110 | Nc1nc2c(F)cccc2c2nc(C(=O)N3CCC4(CCN(Cc5ccc(F)cc5)C4)C3)cn12 (centres unmarked) [Ex-273, (5-amino-7-fluoroimidazo[1,2-c]quinazolin-2-yl)(7-(4-fluorobenzyl)-2,7-diazaspiro[4.4]nonan-2-yl)methanone] |
| 43 | N#Cc1ccc(N2CCC3(CCN(C(=O)c4cn5c(N)nc6c(F)cccc6c5n4)C3)C2)c(F)c1 (centres unmarked) [Ex-275, 4-(7-(5-amino-7-fluoroimidazo[1,2-c]quinazoline-2-carbonyl)-2,7-diazaspiro[4.4]nonan-2-yl)-3-fluorobenzonitrile] |
| 30 | Nc1nc2c(F)cccc2c2nc(CC3CCN(C(=O)OCc4ccccc4)CC3)cn12 [Ex-316, benzyl 4-((5-amino-7-fluoroimidazo[1,2-c]quinazolin-2-yl)-methyl)piperidine-1-carboxylate] |
| 152 | COc1cccc2c1nc(N)n1cc(C(=O)N3CCN4CCCC[C@@H]4C3)nc21 [Ex-245, (R)-(5-amino-7-methoxyimidazo[1,2-c]quinazolin-2-yl)(octahydro-2H-pyrido[1,2-a]pyrazin-2-yl)methanone] |
| 2.3 | Nc1nc2c(F)cccc2c2nc(C(=O)NCc3cccc(CN4CCOCC4)c3)cn12 [Ex-258, 5-amino-7-fluoro-N-(3-(morpholinomethyl)benzyl) imidazo[1,2-c]quinazoline-2-carboxamide] |
| 10 | COc1cccc2c1nc(N)n1cc(C(=O)N3CCCC4(CCOC4=O)C3)nc21 (centres unmarked) [Ex-233, 7-(5-amino-7-methoxyimidazo[1,2-c]quinazoline-2-carbonyl)-2-oxa-7-azaspiro[4.5]decan-1-one] |
